According to patent publication US20120244106A1 (SANOFI-AVENTIS U.S. LLC, priority 2009, published 2012):

Experiments:
Type in all cases: in vivo, humans
[1] = tested on: relapsing-remitting multiple sclerosis patients; assay: Brain MRI Gd-enhancing T1-lesions (number and volume), entire 48-week double-blind treatment period, ITT population
Experimental: (§1) Design/Methods: 96 of the 123 patients that were randomized to study treatment ([…]) for the first 6-months in Example 1 completed this 6-month period and accepted to continue medication for an additional 6-month period (placebo: 37, 7 mg: 30, 14 mg: 29). Of the 96 treated patients, 5 patients prematurely withdrew from the study treatment (placebo: 3, 7 mg: 0, and 14 mg: 2). Safety was evaluated from TEAE, physical exam (every 6 weeks), laboratory data (every 6 weeks), vital signs (every 6 weeks), ECG (at the close-out visit), pancreatic ultrasound (at the close-out visit) and brain MRI (at the close-out visit). Relapses were recorded and EDSS was performed every 6-weeks. Annualized relapse rates (ARR) were analyzed by a Poisson model with the total number of confirmed relapses onset between randomization date and last dose date as the response variable, treatment and region as covariates, and log-transformed standardized study duration as an offset variable. The following results report the entire 48-week double-blind treatment period.
One patient (14 mg group) had one day participation in the study and had no valid baseline MRI data. Two other patients, one in 7 mg and one in 14 mg, prematurely discontinued the study and no post baseline MRI was collected.

[2] = tested on: relapsing-remitting multiple sclerosis patients; assay: Safety and tolerability (TEAE, laboratory data), 24-week study; settings: 24 weeks
Experimental: (§2) A placebo-controlled, double-blinded, randomized study was conducted in relapsing-remitting multiple sclerosis patients who were concurrently on a stable dose of glatiramer acetate. The dose of glatiramer acetate was 20 mg subcutaneously daily.
Around 40 patients were treated in each treatment group (placebo: 41, 7 mg: 42, and 14 mg: 40).
(§3) Safety was evaluated with reported Treatment Emergent Adverse Events (TEAE), physical examination (every 8-weeks), laboratory data (e.g. Liver Function Test, every 2 weeks), vital signs (every 8-weeks), ECG and abdominal ultrasound (at baseline and at 24-weeks). Brain MRI activity, including T1-gadolinium (T1-Gd) lesions with central reading was recorded every 8-weeks, EDSS scores were recorded at baseline and at 24-weeks, Fatigue impact scale was assessed every 8-weeks, and relapses were assessed at every clinical visit.

[3] = tested on: relapsing-remitting multiple sclerosis patients; assay: Confirmed MS relapses / annualized relapse rate, 48-week treatment period, ITT population; settings: 48 weeks
Experimental: Safety was evaluated from TEAE, physical exam (every 6 weeks), laboratory data (every 6 weeks), vital signs (every 6 weeks), ECG (at the close-out visit), pancreatic ultrasound (at the close-out visit) and brain MRI (at the close-out visit). Relapses were recorded and EDSS was performed every 6-weeks.

[4] = tested on: relapsing-remitting multiple sclerosis patients; assay: Safety and tolerability (TEAE, laboratory data), 48-week treatment period; settings: 48 weeks
Experimental: as §1

[5] = tested on: relapsing-remitting multiple sclerosis patients; assay: Confirmed MS relapses / annualized relapse rate, 24-week study, ITT population; settings: 24 weeks
Experimental: as §2
(§4) Around 40 patients were treated in each treatment group (placebo: 41, 7 mg: 42, and 14 mg: 40). […] The mean age of the study population was 41.4 years. […] The base line Expanded Disability Status Scale (EDSS) score was similar between treatment groups (around 2.5). A few more patients had Magnetic Resonance Image (MRI) disease activity (at least one T1-Gd lesion) at baseline in 7 mg group (28.6%) than in placebo (14.6%) and 14 mg (12.8%) groups.
as §3
Twenty-nine patients experienced a total of 30 confirmed relapses. Two relapses occurred after treatment discontinuation (1 day in one placebo patient, 41 days in one 7 mg patient). Therefore, 28 confirmed relapses occurring in 27 patients were included in the analysis (Table 3).

[6] = tested on: relapsing-remitting multiple sclerosis patients; assay: Brain MRI Gd-enhancing T1-lesions (number and volume), 24-week placebo-controlled add-on study, ITT population; settings: 24 weeks
Experimental: as §2, §4, §3

[7] = 7 mg teriflunomide + GA 20 mg sc daily, 48 weeks
[8] = 7 mg or 14 mg teriflunomide + GA
[9] = 7 mg teriflunomide + GA 20 mg sc daily
[10] = 14 mg teriflunomide + GA 20 mg sc daily
[11] = the two teriflunomide groups (7 mg, 14 mg) + GA vs placebo + GA
[12] = 14 mg teriflunomide + GA 20 mg sc daily (group not given)

In the case of `C/C(O)=C(\C#N)C(=O)Nc1ccc(C(F)(F)F)cc1` [teriflunomide, (Z)-2-cyano-3-hydroxy-but-2-enoic acid-(4′-trifluoromethylphenyl)-amide], the “Patients with >=1 Gd-enhancing T1-lesions post-baseline: No (% of patients)” value [1, 7] is reported as 56.1%, the “Unadjusted Gd-enhancing T1-lesions per scan” value [1, 7] is reported as 0.317 and the “Unadjusted Gd-enhancing T1-lesions per scan” value ([1]; 14 mg teriflunomide + GA 20 mg sc daily, 48 weeks) is reported as 0.233. The “Controlling disease activity as measured by T1-Gd lesions” value ([1]; teriflunomide added to GA, one-year study) was “trend to benefit”, the “Concurrent increase in ALT>3ULN and in total bilirubin>2ULN” value [2, 8] was “No case” and the Deaths [2, 8] was “No patients died”. The “Number of patients with TEAE leading to treatment discontinuation” value (“Number of patients with TEAE leading” for short) [2, 9] was 3, the “Patients with ALT greater than 3ULN” value [2, 9] was 0 and the “Patients with TEAE leading to treatment discontinuation (%)” value (“Patients with TEAE leading … (%)” for short) [2, 9] was 7.1%. The “Proportion of patients with TEAE potentially related to immunosuppression” value [2, 9] was 43%, the “Proportion of patients with a TEAE related to hepatic disorder” value (shortened to “Proportion … to hepatic disorder”) [2, 9] was 9.5% and the TEAE incidence rate [2, 9] was 83.3%. The “Number of patients with TEAE leading” value [2, 10] was 4, the “Patients with ALT greater than 3ULN” value [2, 10] was 1 and the “Patients with TEAE leading … (%)” value [2, 10] was 10%. For the same compound, the “Proportion of patients with TEAE potentially related to immunosuppression” value [2, 10] was 38%, the “Proportion … to hepatic disorder” value [2, 10] was 12.2% and the TEAE incidence rate [2, 10] was 87.5%. For the same compound, the Tolerability and safety ([2]; each teriflunomide dose (7 mg, 14 mg) combined with GA) was “acceptable”, the “Proportion of patients with occurrence of decreased WBC count and neutrophils (PCSA)” value [2, 11] was “slightly higher” and the “Adjusted annualized relapse rate, estimate (Poisson model)” value (shortened to “Adjusted annualized relapse rate”) [3, 9] was 0.262. For the same compound, the “Number of patients with >=1 relapses: Yes (number of patients)” value [3, 9] was 8, the “Unadjusted annualized relapses rate” value [3, 9] was 0.281 per patient year and the “Adjusted annualized relapse rate” value [3, 10] was 0.497. For the same compound, the “Number of patients with >=1 relapses: Yes (number of patients)” value [3, 10] was 15, the “Unadjusted annualized relapses rate” value [3, 10] was 0.546 per patient year and the “Number of patients experiencing a serious TEAE” value [4, 9] was 5. The “Number of patients with TEAE leading” value [4, 9] was 3, the “Patients experiencing a serious TEAE (%)” value [4, 9] was 11.9% and the “Patients who experienced a TEAE related to hypertension (number)” value [4, 9] was 2. The “Patients with ALT greater than 3×ULN” value [4, 9] was 0, the “Patients with TEAE leading … (%)” value [4, 9] was 7.1% and the “Proportion of patients experiencing a TEAE related to hypersensitivity” value [4, 9] was 14.3%. The “Proportion of patients with a TEAE potentially related to immunosuppression (all infections and hematological disorders)” value [4, 9] was 52.4%, the “Proportion … to hepatic disorder” value [4, 9] was 9.5% and the TEAE incidence rate [4, 9] was 95.2%. For the same compound, the “Number of patients experiencing a serious TEAE” value [4, 12] was 2, the “Patients experiencing a serious TEAE (%)” value [4, 12] was 4.9% and the “Number of patients with TEAE leading” value [4, 10] was 5. The “Patients who experienced a TEAE related to hypertension (number)” value [4, 10] was 2, the “Patients with ALT greater than 3×ULN” value [4, 10] was 1 and the “Patients with TEAE leading … (%)” value [4, 10] was 12.2%. The “Proportion of patients experiencing a TEAE related to hypersensitivity” value [4, 10] was 24.4%, the “Proportion of patients with a TEAE potentially related to immunosuppression (all infections and hematological disorders)” value [4, 10] was 51.2% and the “Proportion … to hepatic disorder” value [4, 10] was 12.2%. The TEAE incidence rate [4, 10] was 92.7%, the Tolerability and safety ([4]; each dose of teriflunomide (7 mg, 14 mg) combined with GA) was “acceptable and manageable” and the “Proportions of patients with occurrence of decreased WBC and neutrophil counts (PCSA)” value [4, 11] was “slightly higher”. The “Adjusted annualized relapse rate” value [5, 9] was 0.311, the “Total number of relapses” value [5, 9] was 6 and the “Unadjusted annualized relapses rate” value [5, 9] was 0.337 per patient year. For the same compound, the “Adjusted annualized relapse rate” value [5, 10] was 0.647, the “Total number of relapses” value [5, 10] was 12 and the “Unadjusted annualized relapses rate” value [5, 10] was 0.710 per patient year. The “Patients with >=1 Gd-enhancing T1-lesions post-baseline: No (% of patients)” value [6, 9] was 61.0%, the “Unadjusted Gd-enhancing T1-lesions per scan” value [6, 9] was 0.321 and the “Unadjusted Gd-enhancing T1-lesions per scan” value [6, 10] was 0.262. For the same compound, the “Disease control as evaluated by T1-Gd MRI activity” value ([6]; teriflunomide added to stable-dosed GA) was “improved disease control beyond glatiramer acetate alone”.
